From the NIST ThermoML archive (doi:10.1021/je400184t)

Test: xn = mol fraction of the nth substance listed
Conditions: 101 kPa, Liquid, Vibrating tube method

NCCO [2-aminoethan-1-ol] + c1ccncc1
mass density [kg/m3]
Conditions	288.15 K	298.15 K	353.15 K
x2 = 0	1019.87	1012.12	968.332
x2 = 0.01329	–	1011.37	–
x2 = 0.02208	1018.83	–	966.667
x2 = 0.03932	1018.01	1010.09	965.353
x2 = 0.06973	1016.73	1008.71	963.408
x2 = 0.1369	1014.03	1005.81	959.323
x2 = 0.2147	1011.06	1002.59	954.908
x2 = 0.3455	1006.12	997.334	947.883
x2 = 0.4414	1002.7	993.687	943.004
x2 = 0.5819	998.105	988.794	936.439
x2 = 0.6767	995.328	985.804	932.426
x2 = 0.79	992.252	982.566	928.035
x2 = 0.878	990.097	980.237	924.973
x2 = 0.96	988.258	–	922.401
x2 = 0.9817	–	977.805	–

CN(CCO)CCO [N-methyldiethanolamine] + c1ccncc1
mass density [kg/m3]
Conditions	288.15 K	298.15 K	353.15 K
x2 = 0	1046.36	1036.81	994.015
x2 = 0.01699	–	–	992.733
x2 = 0.04	–	1034.22	–
x2 = 0.07502	1041.45	–	988.525
x2 = 0.1	–	1030.39	–
x2 = 0.1844	1034.44	–	980.64
x2 = 0.2183	–	1023.03	–
x2 = 0.3178	1025.81	–	971.05
x2 = 0.33	–	1016.1	–
x2 = 0.4447	1018	–	961.905
x2 = 0.5265	–	1004.45	–
x2 = 0.5708	1010.68	–	952.805
x2 = 0.6	–	1000.15	–
x2 = 0.6945	1003.92	–	943.917
x2 = 0.7687	–	990.603	–
x2 = 0.8095	997.843	–	935.616
x2 = 0.8886	993.774	–	930.006
x2 = 0.9059	–	983.032	–
x2 = 0.9582	–	980.414	–
x2 = 0.9597	990.221	–	924.867

Cc1ccccc1 [toluene] + CCCCCCC
298.15 K
Conditions	mass density [kg/m3]
x2 = 0	862.222
x2 = 0.00177	861.767
x2 = 0.01118	859.353
x2 = 0.0267	855.387
x2 = 0.05849	847.515
x2 = 0.1297	830.567
x2 = 0.2059	813.369
x2 = 0.2752	798.596
x2 = 0.3604	781.402
x2 = 0.4494	764.554
x2 = 0.4718	760.485
x2 = 0.6659	727.559
x2 = 0.8166	704.661
x2 = 0.9094	691.588
x2 = 0.9624	684.471
x2 = 0.9968	679.955
